The results in this text go back to patent publication US20160220637A1, “Pharmaceutical Compositions of Growth Hormone Secretagogue Receptor Ligands” (Ipsen Pharma S.A.S., priority 2010, published 2016).

Each structure is given as a SMILES string. Where a name gives a salt, the structure may show the parent alone. Non-standard residues stand in square brackets, D forms with d. Residues, ends and D or L forms follow the SMILES beside them. dBip = N[C@H](Cc1ccc(-c2ccccc2)cc1)C(=O)O; dBta = N[C@H](Cc1csc2ccccc12)C(=O)O; Api = NC1(C(=O)O)CCNCC1; Inp = O=C(O)C1CCNCC1

Series [1] is described as follows: Solubility study. The format is physicochemical. The text has this:
The mixture was sonicated to facilitate dissolution.

Series [2] addresses human recombinant GHS receptor (Homo sapiens, UniProt Q92847). To be noted: read-out: hGHS Ki; 0.05 nM (125I)ghrelin, 60 min, 4° C., CHO-K1 membranes.
Protocol: Radioligand Binding Assays
Cellular membranes used for the in vitro receptor binding assay were obtained from transgenic CHO-K1 cells stably expressing the human recombinant GHS receptor. CHO-K1 cells stably expressing the hGHS receptor were homogenized in 20 ml of ice-cold 50 mM Tris-HCl with a Brinkman Polytron (Westbury, N.Y., USA) (setting 6, 15 sec). The homogenates were washed twice by centrifugation (39,000 g/10 min), and the final pellets were resuspended in 50 mM Tris-HCl, containing 2.5 mM MgCl2, and 0.1% BSA.

Sequence of human recombinant GHS receptor (Q92847 whole entry): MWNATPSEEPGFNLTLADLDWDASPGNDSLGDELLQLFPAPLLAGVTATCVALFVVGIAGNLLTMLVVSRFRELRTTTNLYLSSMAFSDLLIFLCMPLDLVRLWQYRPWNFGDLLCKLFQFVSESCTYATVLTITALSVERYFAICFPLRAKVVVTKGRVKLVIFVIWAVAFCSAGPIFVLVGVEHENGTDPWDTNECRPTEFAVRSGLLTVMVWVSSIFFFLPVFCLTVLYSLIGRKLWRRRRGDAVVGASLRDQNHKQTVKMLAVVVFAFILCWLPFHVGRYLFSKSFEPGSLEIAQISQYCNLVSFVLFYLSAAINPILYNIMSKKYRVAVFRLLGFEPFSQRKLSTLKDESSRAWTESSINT

The term solubility denotes the dissolved amount per volume that the medium holds. A lower solubility goes with a poorly soluble substance. On to `NC(=O)C1(NC(=O)[C@H](Cc2ccccc2)NC(=O)[C@@H](Cc2c[nH]c3ccccc23)NC(=O)[C@@H](Cc2csc3ccccc23)NC(=O)C2CCNCC2)CCNCC1` [Pamoate salt of Example 1, pamoate salt of H-Inp-D-Bal-D-Trp-Phe-Apc-NH2] (H-[Inp][dBta][dW]F[Api]-NH2), for which the “Dissolution in PEG200/water” value in series [1] (50 mg in 125 μL PEG200 and 125 μL water, sonicated) is recorded as “A clear solution was obtained”. In series [1] (PBS, pH 7.4, PBS, pH 7.4, HPLC of supernatant), this compound yielded a solubility of 70 µg/mL. For the same compound, the “Solubility, Water, pH 7.0” value in series [1] (HPLC of supernatant) worked out at 0.06 mg/mL.
On to `NC(=O)C1(NC(=O)[C@H](Cc2ccccc2)NC(=O)[C@@H](Cc2c[nH]c3ccccc23)NC(=O)[C@@H](Cc2csc3ccccc23)NC(=O)C2CCNCC2)CCNCC1` [Pamoate salt of Example 1 with Zn] (H-[Inp][dBta][dW]F[Api]-NH2), for which the “Solubility, PBS, pH 7.4” value in series [1] (PBS, pH 7.4, HPLC of supernatant) came out at 0.08 mg/mL. In addition, in series [1] (HPLC of supernatant), the “Solubility, Water, pH 7.0” value came to 0.14 mg/mL.
Broadly, the Ki is a dissociation constant, usually derived from enzyme kinetics or from competition with a known ligand. As to `NC(=O)[C@H](Cc1ccccc1)NC(=O)[C@@H](Cc1c[nH]c2ccccc12)NC(=O)[C@@H](Cc1ccc(-c2ccccc2)cc1)NC(=O)C1CCNCC1` [Example 16, H-Inp-D-Bip-D-Trp-Phe-NH2] (H-[Inp][dBip][dW]F-NH2), in series [2], the Ki was found to be 20 nM.
